Test results as given in US20170334865A1, “DDR2 INHIBITORS AND METHODS OF USING” (WASHINGTON UNIVERSITY, priority 2014, published 2017).

Molecular target: T1, DDR2 extracellular domain (ECD) (Homo sapiens, UniProt Q16832)
T1 sequence (Q16832 22-399 limits assumed): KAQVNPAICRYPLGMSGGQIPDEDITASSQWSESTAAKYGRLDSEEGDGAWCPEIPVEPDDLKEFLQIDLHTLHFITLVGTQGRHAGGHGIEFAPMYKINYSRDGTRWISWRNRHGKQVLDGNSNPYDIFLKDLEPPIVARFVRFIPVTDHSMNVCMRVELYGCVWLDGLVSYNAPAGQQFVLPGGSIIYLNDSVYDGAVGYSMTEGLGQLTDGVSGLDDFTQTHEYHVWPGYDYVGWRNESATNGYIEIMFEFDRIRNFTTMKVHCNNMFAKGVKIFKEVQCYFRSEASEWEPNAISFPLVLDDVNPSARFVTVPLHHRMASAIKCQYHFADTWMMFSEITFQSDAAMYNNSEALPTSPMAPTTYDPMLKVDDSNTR
Experiment: in vitro ELISA-type assay, binding of soluble DDR2 ECD to immobilized collagen triple helical peptide
Details: values given in μM; read-out: IC50, Inhibition of DDR2-collagen binding activity
Procedure: The activity of the synthesized compounds was assayed using an in vitro ELISA-type assay to measure the binding of purified, soluble DDR2 extracellular domain (ECD) to an immobilized substrate. The substrate used was a high affinity, specific, triple helical peptide (see Xu et al., PLoS One. 2012; 7(12): e52209), which represents the minimal DDR2 specific binding domain within collagens I-III.
DDR2-collagen binding activity was measured in the presence of 250 nM, 500 nM, or 2 μM of test compound or DMSO control.

Point of comparison: O=c1ccc2nc3ccc(OCc4cccnc4)cc3oc-2c1 [WRG-R-9], IC50 1.2 µM. Against it:
- O=c1ccc2nc3ccc(NS(=O)(=O)c4ccccc4)cc3oc-2c1 [WRG-R-20] — higher, > 100 µM
- CCOc1ccc2nc3ccc(=O)cc-3oc2c1 [7-ethyloxy-phenoxazin-3-one, reference compound] — 3.3-fold higher, 4 µM
- O=C(Nc1ccccc1)Oc1ccc2nc3ccc(=O)cc-3oc2c1 [WRG-R-12] — higher, > 100 µM
- COCCOc1ccc2nc3ccc(=O)cc-3oc2c1 [WRG-R-4] — 12-fold higher, 14 µM
- O=C(Oc1ccc2nc3ccc(=O)cc-3oc2c1)c1ccccc1 [WRG-R-6] — within 1.5-fold, 1.41 µM
- CCCCCOc1ccc2nc3ccc(=O)cc-3oc2c1 [WRG-1, 7-pentyloxy-phenoxazin-3-one] — 2.9-fold higher, 3.5 µM

Same assay, conditions: values in nM; read-out: IC50, Inhibition of DDR2-collagen binding activity

Point of comparison: O=c1ccc2nc3ccc(OCc4ccc(OC(F)F)cc4)cc3oc-2c1 [WRG-R-27], IC50 0.11 µM. Against it:
- COc1cccc(COc2ccc3nc4ccc(=O)cc-4oc3c2)c1 [WRG-R-5] — 3.6-fold higher, 0.393 µM
- O=c1ccc2nc3ccc(OS(=O)(=O)c4ccccc4)cc3oc-2c1 [WRG-R-7] — 5.1-fold higher, 0.558 µM
- O=c1ccc2nc3ccc(OCc4ccccc4)cc3oc-2c1 [WRG-2, 7-benzyloxy-phenoxazin-3-one] — 4.2-fold higher, 0.461 µM
- O=c1ccc2nc3ccc(OCc4ccncc4)cc3oc-2c1 [WRG-R-10] — 2.8-fold higher, 0.311 µM
